Marks after values point to notes of the source that are not given here. Where a SMILES comes first, the peptide text is derived from it. The star is where a group is joined. Cbz = O=C(OCc1ccccc1)*; OtBu = CC(C)(C)O*
What was measured:
calpain = conditions: cited from earlier work
calvaria = assay: Calvarial assay of epoxomicin (Example 7), new bone area; type: cell-based, mouse
Experimental: An assay for bone resorption or bone formation is similar to that described by Gowen M. & Mundy G., J Immunol (1986) 136:2478-82. Briefly, four days after birth, the front and parietal bones of ICR Swiss white mouse pups are removed by microdissection and split along the sagittal suture. In an assay for resorption, the bones are incubated in BGJb medium (Irvine Scientific, Santa Ana, Calif.) plus 0.02% (or lower concentration) β-methylcyclodextrin, wherein the medium also contains test or control substances. The medium used when the assay is conducted to assess bone formation is Fitton and Jackson Modified BGJ Medium (Sigma) supplemented with 6 μg/ml insulin, 6 μg/ml transferrin, 6 ng/ml selenous acid, calcium and phosphate concentrations of 1.25 and 3.0 mM, respectively, and ascorbic acid to a concentration of 100 μg/ml is added every two days. The incubation is conducted at 37° C. in a humidified atmosphere of 5% CO2 and 95% air for 96 hours.
New bone formation was determined (using a 10× objective) by measuring the new bone area formed in one field in 3 representative sections of each bone (4 bones per group). Each measurement was carried out ½ field distance from the end of the suture. Both total bone and old bone area were measured. Data were expressed as new bone area in μm^2.

calvaria of normal mice = assay: In vivo assay of effects on murine calvarial bone growth; parameters: species or system ICR Swiss white mice; conditions: for % Increase in Bone Area Compared with Control: p < 0.05; for % Increase in New Bone Width: p < 0.001
Experimental: Male ICR Swiss white mice, aged 4-6 weeks and weighing 13-26 gm, are employed, using 4-5 mice per group. The calvarial bone growth assay is performed as described in PCT application WO95/24211, incorporated by reference. Briefly, the test compound or appropriate control vehicle is injected into the subcutaneous tissue over the right calvaria of normal mice. Typically, the control vehicle is the vehicle in which the compound was solubilized, and is PBS containing 5% DMSO or is PBS containing Tween (2 μl/10 ml). The animals are sacrificed on day 14 and bone growth measured by histomorphometry. Bone samples for quantitation are cleaned from adjacent tissues and fixed in 10% buffered formalin for 24-48 hours, decalcified in 14% EDTA for 1-3 weeks, processed through graded alcohols; and embedded in paraffin wax. Three to five μm sections of the calvaria are prepared, and representative sections are selected for histomorphometric assessment of the effects on bone formation and bone resorption. Sections are measured by using a camera lucida attachment to trace directly the microscopic image onto a digitizing plate. Bone changes are measured on sections cut 200 μm apart, over 4 adjacent 1×1 mm fields on both the injected and noninjected sides of the calvaria. New bone is identified by its characteristic woven structure, and osteoclasts and osteoblasts are identified by their distinctive morphology. Histomorphometry software (OsteoMeasure, Osteometrix, Inc., Atlanta) is used to process digitizer input to determine cell counts and measure areas or perimeters.
Typical treatment regimens for testing utilize application of the compound to be tested over several days of repeated administration.
PSI and MG-132 were assayed in vivo according to the procedure described previously (see “In vivo Assay of Effects of Compounds on Murine Calvarial Bone Growth”, supra). As a control, simvastatin provided a 1.5 fold increase in the number of osteoblasts.
In one experiment, vehicle control, bFGF and varying doses of PSI were tested in the in vivo calvarial bone growth assay. The results are reported as a measurement of total bone area, % increase in area over vehicle control, and % increase in new bone width as shown below.

hair follicles [1] = assay: Effects on subcutaneous tissue of the scalp (Example 10); type: in vivo, ICR mice; conditions: 1 mg/kg body weight/day injected daily for 5 days; examined 16 days later
Experimental: Effects of PS1 on subcutaneous tissue of the scalp of 6-weeks old ICR mice from longitudinal and transverse sections were determined. PS1 dissolved in 50% propylene glycol, 10% DMSO, and 40% distilled water was injected daily for 5 days (1 mg/kg body weight/day) into the subcutaneous tissue, and the tissue examined histologically 16 days later.

hair follicles [2] = assay: Topical administration of PSI, hair growth (Examples 13 and 14); type: in vivo, mice
Experimental: PSI was prepared as a topical formulation, where the vehicle was 50% propylene glycol, 30% ethanol, 20% deionized water, at 0.1% concentration of PSI. The solution was applied 3 times a day for 5 days. The mice in a treated group were observed as compared to controls similarly treated with vehicle alone.
When the protocol above was repeated using a 0.5% solution of PSI in groups containing 5 mice each, the number of hairs per 0.8 mm^2 was 60 in the treated mice versus about 10 in the control group. The percentage of follicle area in a region of about 0.8 mm was about 30% as an average in the treated group as compared to 15% as an average in the control group.
In order to determine the minimal effective dosage of PSI, when used topically, a dose response curve for PSI was prepared. All experiments were preformed according to current good laboratory practice regulations (21CFR58). The mice were divided into 7 groups, 10 mice each, wherein one group was control treated only with vehicle and groups 1-6 with a series of increasing concentrations of PSI in a vehicle comprising 50% propylene glycol, 30% ethanol, 20% deionized water. The concentrations were 0.006%, 0.012%, 0.025%, 0.05%, 0.11% and 0.5%.
The mice were anesthetized (50 μl Mouse Cocktail containing 3 ml ketamine, 2 ml small animal rompum, 5 ml NaCl), identified by ear punch code, weighed and the hair on the dorsal side removed by waxing as described in Example 6. After waxing, the animals were photographed. On the following day (day 1), 100 μl of PSI at the above concentrations in vehicle was brushed onto the area of removed hair. A similar application of PSI solution was performed daily for an additional 4 days.
On Day 7 mice were anesthetized and a biopsy of the dorsal treatment area taken using a 6 mm dermal punch; the specimens were fixed in 10% buffered formalin and embedded in paraffin wax. Sections were cut using a standard microtome.
Mice were monitored daily for signs of hair growth, and any hair growth was recorded by photography. On day 21 animals were euthanized (75 mg/kg body weight phenobarbital, IP injection), 2 cm hair samples were taken for optical based fiber analysis, and the remaining dorsal treatment area was fixed in 10% buffered formalin for further histological analysis. Analysis included quantification of hair thickness and quantification of mature hair follicles. Results were expressed as the mean=+/−the standard error of the mean. Data were analyzed by repeated measures of analysis of variance followed by the Tukey-Kramer post test P values of <0.05 were considered significant.

proteasomal activity = conditions: cited from earlier work

## CC[C@H](C)[C@H](NC(=O)[C@H]([C@@H](C)CC)N(C)C(C)=O)C(=O)N[C@H](C(=O)N[C@@H](CC(C)C)C(=O)[C@@]1(C)CO1)[C@@H](C)O [Epoxomicin]
calpain
  concentration up to which no inhibition appears: > 50 µM
calvaria; concentrations of 5-10 nM
  bone formed compared with control: significantly more bone was formed than in the control
calvaria; dose 0.000625 μM
  New Bone Area: 2.78 mm^2 × 10^−3
calvaria; dose 0.00125 μM
  New Bone Area: 2.80 mm^2 × 10^−3
calvaria; dose 0.0025 μM
  New Bone Area: 4.04 mm^2 × 10^−3
calvaria; dose 0.005 μM
  New Bone Area: 6.54# mm^2 × 10^−3
calvaria; dose 0.01 μM
  New Bone Area: 5.74# mm^2 × 10^−3

## CC[C@H](C)[C@H](NC(=O)OCc1ccccc1)C(=O)N[C@@H](CCC(=O)OC(C)(C)C)C(=O)N[C@@H](C)C(=O)N[C@H](C=O)CC(C)C [PSI, N-carbobenzoyl-Ile-Glu-(OtBu)-Ala-Leu-CHO] (Cbz-IE(OtBu)AL-aldehyde)
Calvaria of normal mice; 5 mg/kg/day and 1 mg/kg/day of PSI
  histological examination of bone growth: confirmation of bone growth
Calvaria of normal mice; PSI 0.1 mg/kg/day
  Total Bone Area: 0.74 ± 0.02 mm²
  % Increase in Bone Area Compared with Control: 21.7 ± 3.5%
Calvaria of normal mice; PSI 1 mg/kg/day
  Total Bone Area: 0.83 ± 0.02 mm²
  % Increase in New Bone Width: 19.9 ± 2.0%
  % Increase in Bone Area Compared with Control: 35.4 ± 3.4%
Calvaria of normal mice; PSI 5 mg/kg/day
  Total Bone Area: 0.79 ± 0.03 mm²
  % Increase in New Bone Width: 19.9 ± 4.4%
  % Increase in Bone Area Compared with Control: 32.1 ± 5.6%
Hair follicles [1]
  numbers of hair follicles: numbers of hair follicles increased
  size of the follicle diameter and the root sheath diameter: obvious increase in size of the follicle diameter and the root sheath diameter
Hair follicles [2]; 0.1% of PSI applied topically 3 times a day for 5 days (additional experiments)
  effectiveness on hair growth: effective
Hair follicles [2]; topical
  thickness of hair and hair shaft: thicken both the hair and the hair shaft
Hair follicles [2]; topical 0.5% solution of PSI, average, control 15%
  percentage of follicle area in a region of about 0.8 mm: about 30%
Hair follicles [2]; topical 0.5% solution of PSI, control about 10
  number of hairs per 0.8 mm^2: 60
Hair follicles [2]; topical, 0.1% PSI, 3 times a day for 5 days, day 16
  hair growth relative to controls: stimulation of hair growth relative to the controls
Hair follicles [2]; topical, applied 1 time a day for 4 days
  minimal effective dose: 0.5%

## simvastatin
Calvaria of normal mice; mouse, in vivo
  increase in the number of osteoblasts: 1.5 fold
Proteasomal activity
  effects on proteasomal activity: no effects on proteasomal activity
